In patent US7569547B2, “Inhibiting furin with polybasic peptides” (Board of Supervisors of Louisiana State University and …, priority 2001, dated 2009):
Non-standard residues stand in square brackets, D forms with d. Residues, ends and D or L forms follow the SMILES beside them.

Assays:
PC2 = target: T1, PC2 (Mus musculus, UniProt P21661); experiment: PC2 enzyme assay, hydrolysis of pERTKR-MCA at pH 5.0; format: biochemical; design: made in house
T1 sequence (P21661 109-637): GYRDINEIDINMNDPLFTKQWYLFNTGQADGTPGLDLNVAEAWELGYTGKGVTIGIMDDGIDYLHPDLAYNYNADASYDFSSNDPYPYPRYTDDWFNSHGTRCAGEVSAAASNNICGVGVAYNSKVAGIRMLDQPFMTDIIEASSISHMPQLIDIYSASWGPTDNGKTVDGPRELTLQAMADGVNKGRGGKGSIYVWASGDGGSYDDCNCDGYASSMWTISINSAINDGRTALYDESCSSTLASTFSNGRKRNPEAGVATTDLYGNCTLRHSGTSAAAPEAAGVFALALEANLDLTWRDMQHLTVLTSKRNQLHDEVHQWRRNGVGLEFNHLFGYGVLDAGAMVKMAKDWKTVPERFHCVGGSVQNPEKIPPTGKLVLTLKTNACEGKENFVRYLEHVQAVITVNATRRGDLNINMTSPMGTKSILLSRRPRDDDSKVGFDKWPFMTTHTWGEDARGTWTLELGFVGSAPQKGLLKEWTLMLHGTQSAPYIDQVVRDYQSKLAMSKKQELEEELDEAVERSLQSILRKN
Method: The proprotein convertases PC1 and PC2 were prepared by ion exchange chromatography as described in G. Frenette et al., Biochim. Biophys. Acta., vol. 1334, pp. 109-115 (1997).
(§1) Enzyme Assays and Hexapeptide Library Screening. Enzyme assays for PC1 and PC2 were performed at pH 5.0 using pERTKR-MCA (Peptides International Inc., Louisville, Ky.) as described in E. Apletalina et al., J. Biol. Chem., vol. 273, pp. 26589-26595 (1998). The assay for furin was performed using the same substrate at pH 7.0 in 100 mM HEPES, 5 mM CaCl2, 0.1% Brij 35. All assays were performed at 37° C. in a 96 well fluorometer (Labsystems) at an excitation wavelength of 380 nm with emission monitored at a wavelength of 460 nm. The total volume was 50 μL. Unless otherwise stated, the final substrate concentration for all assays was 200 μM. When used in a particular experiment, the inhibitory peptides were pre-incubated with enzyme for 30 min at room temperature prior to addition of substrate. All assays were performed in duplicate or triplicate.

recombinant mouse furin = target: T2, recombinant mouse furin (Mus musculus, UniProt P23188); experiment: Furin enzyme assay, hydrolysis of pERTKR-MCA at pH 7.0; format: biochemical; conditions: for type of inhibition of furin (Lineweaver-Burk plots): furin 30 nM, 0, 20 or 40 μM hexapeptide, polyarginines forty-fold lower
T2 construct: truncated N-terminally to the transmembrane domain at His^711 using PCR; myc (C, cleaved yes); hexa-His (C, cleaved yes); made in house; host or cells: DG44 CHO cells, conditioned medium
T2 sequence (P23188 108-714 limits assumed): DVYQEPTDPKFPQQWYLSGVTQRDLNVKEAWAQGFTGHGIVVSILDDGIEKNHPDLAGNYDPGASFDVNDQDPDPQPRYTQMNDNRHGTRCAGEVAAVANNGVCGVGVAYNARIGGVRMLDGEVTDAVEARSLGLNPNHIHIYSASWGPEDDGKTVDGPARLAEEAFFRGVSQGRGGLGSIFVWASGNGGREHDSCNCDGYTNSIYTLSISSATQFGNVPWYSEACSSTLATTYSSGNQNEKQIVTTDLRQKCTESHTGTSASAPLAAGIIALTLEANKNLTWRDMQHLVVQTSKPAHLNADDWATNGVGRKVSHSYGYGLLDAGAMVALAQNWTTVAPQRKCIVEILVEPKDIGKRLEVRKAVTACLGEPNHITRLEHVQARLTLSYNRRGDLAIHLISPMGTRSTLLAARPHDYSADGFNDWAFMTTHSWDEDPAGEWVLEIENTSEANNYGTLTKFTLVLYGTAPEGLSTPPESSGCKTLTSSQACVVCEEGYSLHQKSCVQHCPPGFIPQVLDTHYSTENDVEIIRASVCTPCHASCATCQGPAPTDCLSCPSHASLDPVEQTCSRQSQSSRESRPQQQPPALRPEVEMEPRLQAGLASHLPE
Source text: Recombinant convertase preparation. The mouse furin clone was a kind gift from K. Nakayama (Fukuoka University School of Medicine, Fukuoka, Japan). The mouse furin cDNA was truncated N-terminally to the transmembrane domain at His^711 using PCR. This PCR product was then subcloned into pcDNA3.1 (−) myc-His (Invitrogen) at the Nhe1 and Xba1 restriction sites. Dihydrofolate-reductase-negative DG44 Chinese Hamster Ovary (CHO) cells (L. Chasin, Columbia University, New York, N.Y.) were transfected using Lipofectin (Life Technologies), and colonies were selected at 37° C. in 5% CO2 in α-MEM (lacking nucleosides) containing 10% well-dialyzed fetal bovine serum (Life Technologies). Conditioned media from colonies were screened using an enzyme assay (see below), and a high-expressing clone was selected. Overexpression of furin was achieved by increasing the methotrexate concentration from 5 nM to 50 μM in five- to ten-fold steps as described in I. Lindberg et al., Methods Neurosci., vol. 23, pp. 94-108 (1995). The amplified lines were tested for increased furin expression by enzyme assay. Once the 50 μM methotrexate level had been reached, cells were split at ratios of 1:6 twice a week. 100 mL of conditioned media (OptiMEM, Life Technologies) containing 100 μg/mL aprotinin (Miles Laboratories, Kankakee, Ill.) was collected from confluent roller bottles every 24 h. The medium was then centrifuged at low speed to remove cells, and the supernatant was stored at −80° C. until use.
Purification of furin: Conditioned medium was thawed, pooled, and diluted 1:3.5 with buffer A (20 mM HEPES, 0.1% Brij 35, 5 mM CaCl2, pH 7.4), and pumped at 40 mL/min through a Sartorius D100 anion exchange membrane. The membrane was washed with 40 mL of buffer A, followed by 40 mL of buffer A containing 50 mM NaCl, and finally by 40 mL of buffer A containing 200 mM NaCl. The fraction eluting with 200 mM NaCl was diluted 1:4 with buffer A and applied to a 1 mL Pharmacia Mono Q HR5/5 anion exchange column at a flow rate of 1 mL/min. Following a 10 mL wash with buffer A, furin was eluted by a linear increase of 0 to 500 mM NaCl in buffer A over 30 mL; and 2 mL fractions were collected. Fractions containing peak activity were pooled, and 200 μL aliquots were subjected to gel permeation chromatography using a Pharmacia Superose 12 column at a flow rate of 0.5 mL/min of buffer A containing 200 mM NaCl. Fractions were assayed for activity as described below; protein content was determined using the Bradford method. All purification steps were performed at 4° C.
as §1

Row | Compound | Ki (PC2) | Ki (recombinant mouse furin) | type of inhibition of furin (Lineweaver-Burk plots) (recombinant mouse furin) | increase of inhibitory potency against furin on removing the terminal amide and acetyl groups (recombinant mouse furin; LLRVKR compared with acetylated and amidated form)
1 | CC(=O)N[C@@H](CC(C)C)C(=O)N[C@@H](CC(C)C)C(=O)N[C@@H](CCCN=C(N)N)C(=O)N[C@H](C(=O)N[C@@H](CCCCN)C(=O)N[C@@H](CCCN=C(N)N)C(=O)O)C(C)C [Ac-LLRVKR] | 1.3 ± 0.6 µM | – | – | –
2 | CC[C@@H](C)[C@@H](NC(=O)[C@@H](CCCNC(=N)N)NC(=O)[C@@H](CCCNC(=N)N)NC(=O)[C@@H](CCCNC(=N)N)NC(=O)[C@@H](Cc1c[nH]c2ccccc12)NC(C)=O)C(=O)N[C@H](CC(C)C)C(N)=O [Ac-wrrril-NH2] (Ac-[dW][dR][dR][dR][dI][dL]-NH2) | 601 ± 200 µM | 22.7 ± 4.3 µM | – | –
3 | CC[C@@H](C)[C@@H](NC(=O)[C@@H](CCCNC(=N)N)NC(=O)[C@@H](CCCNC(=N)N)NC(=O)[C@@H](CCCNC(=N)N)NC(=O)[C@@H](Cc1c[nH]c2ccccc12)NC(C)=O)C(=O)N[C@H](CCCNC(=N)N)C(N)=O [Ac-wrrrir-NH2] (Ac-[dW][dR][dR][dR][dI][dR]-NH2) | 399 ± 75 µM | 7 ± 0.9 µM | – | –
4 | CC(=O)N[C@H](Cc1c[nH]c2ccccc12)C(=O)N[C@H](CCCNC(=N)N)C(=O)N[C@H](CCCNC(=N)N)C(=O)N[C@H](CCCNC(=N)N)C(=O)N[C@H](CCCNC(=N)N)C(=O)N[C@H](CC(C)C)C(N)=O [Ac-wrrrrl-NH2] (Ac-[dW][dR][dR][dR][dR][dL]-NH2) | 203 ± 20 µM | 5.3 ± 1 µM | – | –
5 | CC(=O)N[C@H](Cc1c[nH]c2ccccc12)C(=O)N[C@H](CCCNC(=N)N)C(=O)N[C@H](CCCNC(=N)N)C(=O)N[C@H](CCCNC(=N)N)C(=O)N[C@H](CCCNC(=N)N)C(=O)N[C@H](CCCNC(=N)N)C(N)=O [Ac-wrrrrr-NH2] (Ac-[dW][dR][dR][dR][dR][dR]-NH2) | 334 ± 37 µM | 2.4 ± 0.8 µM | strictly competitive-type inhibition | –
6 | CC(C)C[C@H](NC(=O)[C@@H](N)CC(C)C)C(=O)N[C@@H](CCCNC(=N)N)C(=O)N[C@H](C(=O)N[C@@H](CCCCN)C(=O)N[C@@H](CCCNC(=N)N)C(N)=O)C(C)C [LLRVKR-NH2] | 2.3 ± 0.2 µM | – | – | –
7 | CC(C)C[C@H](NC(=O)[C@@H](N)CC(C)C)C(=O)N[C@@H](CCCNC(=N)N)C(=O)N[C@H](C(=O)N[C@@H](CCCCN)C(=O)N[C@@H](CCCNC(=N)N)C(=O)O)C(C)C [LLRVKR] | 3.7 ± 0.17 µM | – | – | eight-fold
8 | Ac-HHKRRR-NH2 [Ac-HHKRRR-NH2] | 235 ± 16 µM | – | – | –
9 | Ac-HRKRRR-NH2 [Ac-HRKRRR-NH2] | 309 ± 29 µM | – | – | –
10 | Ac-KHKRRR-NH2 [Ac-KHKRRR-NH2] | 280 ± 29 µM | – | – | –
11 | Ac-KRKRRR-NH2 [Ac-KRKRRR-NH2] | 391 ± 60 µM | – | – | –
12 | Ac-MHKRRR-NH2 [Ac-MHKRRR-NH2] | 216 ± 13 µM | – | – | –
13 | Ac-MRKRRR-NH2 [Ac-MRKRRR-NH2] | 1500 µM | – | – | –
14 | Ac-RHKRRR-NH2 [Ac-RHKRRR-NH2] | 152 ± 30 µM | 3.4 ± 0.6 µM | – | –
15 | Ac-RRKRRR-NH2 [Ac-RRKRRR-NH2] | 461 ± 75 µM | – | strictly competitive-type inhibition | –
